Data on 8 compounds can be found in paper PMC9585589 (ACS Chemical Neuroscience, 2022).

SMILES strings stand for the structures. Several values for one entry are separate records, joined by “and”; a condition that tells them apart may be missing. Identical values can stand only once. Like-named read-outs stand apart in the source and are kept apart here. A value given as a limit tells only on which side of the number the result lay.

The term Solubility denotes how much of the substance goes into solution per volume. Broadly, the Emax is the greatest response seen or fitted, relative to the assay's reference.

Series [1] concerns the target T1, human CB1 receptor (Homo sapiens, UniProt P21554). Nature of the series: biochemical. How it is done: Ten compound concentrations equally spaced on a log scale (10^–3 to 10^–9 M) were incubated in triplicate with membrane preparations from CHO-K1 cells expressing the human CB1 receptor (5 μg per well) (Perkin Elmer, cat. no. ES-110-M400UA) in an assay buffer containing 50 mM Tris-HCl, pH = 7.4, 1 mM EGTA, 3 mM MgCl2, 100 mM NaCl and 30 μM GDP) in the presence of 0.08 nM [^35S]GTPγS (specific activity: 1250 Ci/mmole, Perkin Elmer). Non-specific binding was determined with 100 μM of unlabeled GTPγS. […] The final DMSO concentration in the assay was 5%. The reaction mixture was incubated for 90 min. at 30°C . Next, the samples were deposited under vacuum with the FilterMate Harvester® (Perkin Elmer, USA) onto Unifilter® GF/B Plates (Perkin Elmer, USA) presoaked with wash buffer (50 mM Tris-HCl, pH = 7.4). The samples were then rapidly washed with 2 ml of wash buffer. Filter plates were dried for 30 min. at 50 °C and 40 μL of MicroScint PS (Perkin Elmer, USA) scintillation fluid was added to each well. Radioactivity was counted in a Trilux MicroBeta^2 counter (Perkin Elmer, USA). Data were analyzed with GraphPad Prism 5.0 software. Curves were fitted with three-parameter non-linear regression model.

On the set-up of series [2]: method as in MedChemExpress product data sheet. The note with it: ref MedChemExpress product data sheet, cited from earlier work.
Series [3] has as its target T1, human CB1 receptor. It counts as biochemical. The note with it: in words.
Series [4] has as its target T1, human CB1 receptor. The series is described as follows: biochemical. It counts as binding. More on the design: purchased Merck HTS019M; host or cells: Chem-1 cells. The source says: Compounds selected for the in vitro binding assay from the first iteration of VS were purchased via MolPort, SIA, Riga, Latvia and Biopurify Phytochemicals Ltd., Chengdu, China. Compounds from the second iteration were purchased from MolPort, SIA, Riga, Latvia and Chemspace, SIA, Riga, Latvia (Supporting Information S3). […] Membranes from cells overexpressing the human CB1 receptor (ChemiScreen CB1 Cannabinoid Receptor Membrane Preparation, cat. no. HTS019M) as well as MgCl2, CaCl2, Trizma Base, NaCl, polyethylenimine (PEI) and dimethyl sulfoxide (DMSO) were purchased from Merck (USA). Bovine serum albumin (BSA) was obtained from Pol-Aura (Poland).
Compounds were dissolved in 50% DMSO and added to the reaction mixture at 10 concentrations equally spaced on a log scale (10^–10 to 10^–4.5 M). The final DMSO concentration was 5%. […] The reaction mixture (500 μL) was incubated for 1.5 h at 30°C . Before harvesting, Whatman GF/B Filter Paper (Brandel, USA) was presoaked with 0.33% PEI buffer for 30 min. and then washed with 2 ml of 50 mM Tris-HCl buffer (pH = 7.4) and 0.5% BSA to minimize non-specific binding. The reaction was terminated by depositing the samples onto GF/B filter paper with the Brandel M-24 Cell Harvester (Brandel, USA). Samples were then rapidly washed 3 times with 2 ml of ice-cold wash buffer (50 mM Tris-HCl pH 7.4, 500 mM NaCl) to separate the bound radioligand from free. Filters were then air-dried for 1 h at 60°C . After drying, filter discs were placed on a flexible 24-well plate and 500 μL of EcoScint-20 scintillant was added to each well. Plates were counted (2 min. per well) in a Trilux MicroBeta^2 2450 scintillation counter (Perkin Elmer, USA). Data were analyzed with GraphPad Prism 5.0 software.[89]

The target in series [5] is CB1. The note with it: known CB1 ligands; ref 55 (rimonabant), 56 (nabilone), 17 (bazedoxifene); cited from earlier work.
[6] abbreviates: CHO-K1 membranes, WIN 55,212-2 (3 μM) as stimulating ligand, read-out: CB1 inhibition pIC50 (converted).
Setting [7] is: [3H]CP-55,940 displacement, membranes of Chem-1 cells expressing human CB1, read-out: pKi ± SEM (converted).
[8] abbreviates: read-out: CB1 inhibition IC50 (μM, 95% CI).

T1 sequence (P21554 whole entry): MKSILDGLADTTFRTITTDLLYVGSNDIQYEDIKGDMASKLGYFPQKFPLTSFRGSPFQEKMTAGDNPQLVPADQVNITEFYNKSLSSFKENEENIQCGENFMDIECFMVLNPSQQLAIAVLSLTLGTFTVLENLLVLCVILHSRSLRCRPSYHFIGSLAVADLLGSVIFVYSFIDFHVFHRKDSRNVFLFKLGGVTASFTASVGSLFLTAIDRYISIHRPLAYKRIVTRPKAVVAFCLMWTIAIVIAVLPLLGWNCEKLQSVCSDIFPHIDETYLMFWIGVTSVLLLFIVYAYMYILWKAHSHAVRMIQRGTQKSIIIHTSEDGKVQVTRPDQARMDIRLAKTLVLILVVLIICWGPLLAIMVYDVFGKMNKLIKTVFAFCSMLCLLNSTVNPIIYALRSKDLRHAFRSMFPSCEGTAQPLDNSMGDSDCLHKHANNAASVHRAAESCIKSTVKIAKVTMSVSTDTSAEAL

As to `CC(C)OC(=O)CCC/C=C\C[C@@H]1[C@@H](/C=C/[C@@H](O)COc2cccc(C(F)(F)F)c2)[C@H](O)C[C@@H]1O` [Compound 9, travoprost], the IC50 was 232 µM in series [1] (CB1 inhibition IC50 (μM, 95% CI)) and 229 µM in series [1] (setting [6]). Further, the Solubility in series [2] (10% DMSO >> 40% PEG300 >> 5% Tween-80 >> 45% saline) was ≥ 2.08 mg/mL and ≥ 4.16 mM; in series [2] (10% DMSO >> 90% (20% SBE-β-CD in saline)), ≥ 2.08 mg/mL and ≥ 4.16 mM; in series [2] (10% DMSO >> 90% corn oil) it was ≥ 2.08 mg/mL and ≥ 4.16 mM. The “Solubility in DMSO” value in series [2] (in vitro) is ≥ 41.67 mg/mL and ≥ 83.25 mM. For the same compound, the intrinsic activity result in series [3] is “antagonists”. Besides, the Ki in series [4] (Ki (μM, 95% CI)) is 3.6 µM; in series [4] (setting [7]), 3.98 µM.
Turning to `COc1cc(-c2c3cn[nH]c3nc3c2oc2c(O)c(O)ccc23)ccc1OCc1ccc(C(C)C)cc1` [Compound 30], the IC50 in series [1] (setting [6]) was 2.09 µM. In addition, the Emax in series [1] (CHO-K1 membranes, read-out: CB1 stimulation Emax (%)) was found to be 126 ± 5%. Moreover, the EC50 in series [1] (CHO-K1 membranes, read-out: CB1 stimulation pEC50 (converted)) is 0.417 µM. In addition, in series [3], the intrinsic activity entry is reported as “mixed CB1 partial agonist/antagonist”. Besides, the Ki in series [4] (Ki (μM, 95% CI)) was 0.8 µM; in series [4] (setting [7]), 0.851 µM.
As for `COc1ccc([C@@H](CC(=O)NCc2cccc3[nH]ccc23)c2cc3c(cc2O)OCO3)cc1` [Compound 32], the IC50 is 33.1 µM in series [1] (setting [6]) and 40 µM in series [1] (setting [8]). Also, in series [3], the intrinsic activity result is listed as “antagonists”. Besides, the Ki in series [4] (Ki (μM, 95% CI)) is 6.8 µM; in series [4] (setting [7]) it was 6.31 µM.
Take `COc1ccccc1C(CCNC(C)c1ccc(Cl)cc1)c1ccc(OC(C)C)cc1` (stereo not shown) [Compound 34]: the IC50 in series [1] (setting [6]) was 3.72 µM. In addition, the intrinsic activity entry in series [3] is “antagonists”. The Ki in series [4] (setting [7]) was 2.69 µM.
As for `COc1ccc(-c2cc(-c3ccccc3)cc(-c3ccccc3O)n2)c(OC)c1` [Compound 38], the IC50 in series [1] (setting [8]) stood at 140 µM. Also, the intrinsic activity entry in series [3] is on record as “antagonists”. Moreover, the Ki in series [4] (setting [7]) was 2.51 µM.
With `COc1cccc2c1ccn2CCNC(=O)[C@H](Cc1cn(C)c2ccccc12)NC(=O)OC(C)(C)C` [Compound 43], in series [1] (setting [6]), the IC50 was 1.86 µM. Besides, the intrinsic activity entry in series [3] is “antagonists”. The compound also had a Ki in series [4] (Ki (μM, 95% CI)) of 6.6 µM.
As to `Cc1c(-c2ccc(O)cc2)n(Cc2ccc(OCCN3CCCCCC3)cc2)c2ccc(O)cc12` [bazedoxifene], in series [5], the pKi was 6.1[17].
As to `CCCCCCC(C)(C)c1cc(O)c2c(c1)OC(C)(C)C1CCC(=O)CC21` (stereo not shown) [nabilone], the pKi in series [5] was 8.7[56].
